# Numbered stars: 1 amine (or outer) side, 2 acyl side, 3 side chain; on linkers, the order of the positions; unused ones are H or OH. Bridge positions count the residues as written; N and C are the ends. Square brackets hold non-standard residues; d marks the D form. Peptide text beside a SMILES is read from it. * marks the point of attachment. hPhe(3-Cl-4-CF3) = N[C@@H](CCc1ccc(C(F)(F)F)c(Cl)c1)C(=O)O; hPhe(3-F,4-CF3) = N[C@@H](CCc1ccc(C(F)(F)F)c(F)c1)C(=O)O; NMePhe(4-CF3) = CN[C@@H](Cc1ccc(C(F)(F)F)cc1)C(=O)O; hPhe(4-CF3) = N[C@@H](CCc1ccc(C(F)(F)F)cc1)C(=O)O; Pro(cis-4-Ph) = O=C(O)[C@@H]1C[C@H](c2ccccc2)CN1; NMePhe(4-Cl) = CN[C@@H](Cc1ccc(Cl)cc1)C(=O)O; NMedβ3hAla = C[C@H](CC(=O)[*:2])N(C)[*:1]; NMeGly(cPent) = CN[C@H](C(=O)O)C1CCCC1; X132 = O=C(CN(CCOCC(F)(F)F)[*:1])[*:2]; NMeCha = CN[C@@H](CC1CCCCC1)C(=O)O; X81 = O=C(CN(CCOCC(F)F)[*:1])[*:2]; Hyp = O=C(O)[C@@H]1C[C@@H](O)CN1; NMeChg = CN[C@H](C(=O)O)C1CCCCC1; NMeF = CN[C@@H](Cc1ccccc1)C(=O)O; NMeD = CN[C@@H](CC(=O)O)C(=O)O; NMeL = CN[C@@H](CC(C)C)C(=O)O; NMeV = CN[C@H](C(=O)O)C(C)C; Trifluoroethyl = FC(F)(F)C*; d(β3hA) = C[C@@H](N)CC(=O)O; NMeS = CN[C@@H](CO)C(=O)O; Morpholide = C1CN(*)CCO1; NMeA = CN[C@@H](C)C(=O)O; NMeAib = CNC(C)(C)C(=O)O; Piperidide = C1CCN(*)CC1; dNMeA = CN[C@H](C)C(=O)O; Ac5c = NC1(C(=O)O)CCCC1; Aze = O=C(O)[C@@H]1CCN1; CH2CMe2OH = CC(C)(O)C*; Aib = CC(C)(N)C(=O)O; X14 = c1cc(C*)cs1; βAla = NCCC(=O)O; Sar = CNCC(=O)O; Propyl = CCC*
# Biological target: protein-protein interaction between Kras and SOS1 (biotin-tagged human Kras loaded with GDP, His-tagged human SOS1) (Homo sapiens (Human), UniProt P01116, G12D)
# Experiment: Protein-protein interaction inhibition between Kras and SOS1 (KrasG12D-SOS PPI) using AlphaScreen;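 also: kras produced in E. coli, Ni-coupled donor beads and streptavidin acceptor beads, excitation 680 nm with emission detected at 520–620 nm via singlet oxygen transfer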
# Format: biochemical
# Settings: AlphaScreen; biotin-tagged human Kras loaded with GDP, His-tagged human SOS1; read-out: KRAS G12D-SOS PPI IC50
row,SMILES,IC50
1,CC[C@H](C)[C@@H]1NC(=O)[C@H](CC(C)C)N(C)C(=O)C[C@@H](C(=O)N2CCCCC2)N(C)C(=O)[C@H](C2CCCCC2)N(C)C(=O)C2(CCCC2)NC(=O)[C@H](COCC(C)(C)O)N(C)C(=O)[C@H](CCc2ccc(C(F)(F)F)c(Cl)c2)NC(=O)CN(C)C(=O)[C@H](CC2CCCCC2)N(C)C(=O)CN(C)C(=O)CN(C)C1=O [Compound 789] ([NMeL]I[Sar][Sar][NMeCha][Sar][hPhe(3-Cl-4-CF3)][NMeS](CH2CMe2OH)[Ac5c][NMeChg][NMeD]-Piperidide; lactam N-11),0.61 nM
2,CC[C@H](C)[C@@H]1NC(=O)[C@H](C(C)C)N(C)C(=O)CCNC(=O)[C@H](CC(C)C)N(C)C(=O)C2(CCCC2)NC(=O)[C@H](CC(C)C)N(C)C(=O)[C@H](CCc2ccc(C(F)(F)F)cc2)NC(=O)CN(C)C(=O)[C@H](Cc2ccc(Cl)cc2)N(C)C(=O)CN(C)C(=O)CN(C)C1=O [Compound 923] (cyclo([Ac5c][NMeL][βAla][NMeV]I[Sar][Sar][NMePhe(4-Cl)][Sar][hPhe(4-CF3)][NMeL])),230 nM
3,CC[C@H](C)[C@@H]1NC(=O)[C@H](CC(C)C)N(C)C(=O)C[C@@H](C)N(C)C(=O)[C@H](C2CCCCC2)N(C)C(=O)C2(CCCC2)NC(=O)[C@@H]2CCCN2C(=O)[C@H](CCc2ccc(C(F)(F)F)c(Cl)c2)NC(=O)CN(C)C(=O)[C@H](Cc2ccc(C(F)(F)F)cc2)N(C)C(=O)[C@@H]2CCN2C(=O)[C@H](C)N(C)C1=O [Compound 348] (cyclo([Ac5c][NMeChg][NMedβ3hAla][NMeL]I[NMeA][Aze][NMePhe(4-CF3)][Sar][hPhe(3-Cl-4-CF3)]P)),6 nM
4,CC[C@H](C)[C@@H]1NC(=O)[C@H](C)N(C)C(=O)C[C@@H](C)N(C)C(=O)[C@H](CC(C)C)NC(=O)C(C)(C)N(C)C(=O)[C@H](CC(C)C)NC(=O)[C@H](CCc2ccc(C(F)(F)F)cc2)NC(=O)CN(C)C(=O)[C@H](Cc2ccc(Cl)cc2)N(C)C(=O)CN(C)C(=O)CN(C)C1=O [Compound 323] (cyclo(I[Sar][Sar][NMePhe(4-Cl)][Sar][hPhe(4-CF3)]L[NMeAib]L[NMedβ3hAla][NMeA])),140 nM
5,CC[C@H](C)[C@@H]1NC(=O)[C@H](CC(C)C)N(C)C(=O)C[C@@H](C(=O)N2CCOCC2)N(C)C(=O)[C@H](C(C)C)N(C)C(=O)C2(CCCC2)NC(=O)[C@@H]2CCCN2C(=O)[C@H](CCc2ccc(C(F)(F)F)c(Cl)c2)NC(=O)CN(C)C(=O)[C@H](CC2CCCCC2)N(C)C(=O)[C@@H]2CCN2C(=O)CN(C)C1=O [Compound 1758] ([NMeL]I[Sar][Aze][NMeCha][Sar][hPhe(3-Cl-4-CF3)]P[Ac5c][NMeV][NMeD]-Morpholide; lactam N-11),1.2 nM
6,CC[C@H](C)[C@@H]1NC(=O)[C@H](C)N(C)C(=O)C[C@@H](C)NC(=O)[C@H](C(C)C)N(C)C(=O)C2(CCCC2)NC(=O)[C@@H]2CCCN2C(=O)[C@H](CCc2ccc(C(F)(F)F)c(Cl)c2)NC(=O)[C@@H](C)N(C)C(=O)[C@H](CC2CCCCC2)N(C)C(=O)[C@@H]2CCCN2C(=O)[C@@H]2CCN2C1=O [Compound 2009] (cyclo([Ac5c][NMeV][d(β3hA)][NMeA]I[Aze]P[NMeCha][dNMeA][hPhe(3-Cl-4-CF3)]P)),82 nM
7,CC[C@H](C)[C@@H]1NC(=O)[C@H](COCC(F)(F)F)N(C)C(=O)C[C@@H](C(=O)N2CCCCC2)N(C)C(=O)[C@H](C(C)C)N(C)C(=O)C2(CCCC2)NC(=O)[C@@H]2CCCN2C(=O)[C@H](CCc2ccc(C(F)(F)F)c(Cl)c2)NC(=O)CN(C)C(=O)[C@H](CC2CCCCC2)N(C)C(=O)[C@@H]2CCN2C(=O)[C@H](C)N(C)C1=O [Compound 387] ([NMeS](Trifluoroethyl)I[NMeA][Aze][NMeCha][Sar][hPhe(3-Cl-4-CF3)]P[Ac5c][NMeV][NMeD]-Piperidide; lactam N-11),4.2 nM
8,CC[C@H](C)[C@@H]1NC(=O)[C@H](CC(C)C)N(C)C(=O)C[C@@H](C)N(C)C(=O)[C@H](C2CCCC2)N(C)C(=O)C2(CCCC2)NC(=O)[C@@H]2CCCN2C(=O)[C@H](CCc2ccc(C(F)(F)F)c(Cl)c2)NC(=O)CN(C)C(=O)[C@H](C2CCCC2)N(C)C(=O)[C@@H]2CCN2C(=O)[C@H](C)N(C)C1=O [Compound 1046] (cyclo([Ac5c][NMeGly(cPent)][NMedβ3hAla][NMeL]I[NMeA][Aze][NMeGly(cPent)][Sar][hPhe(3-Cl-4-CF3)]P)),4.6 nM
9,CC[C@H](C)[C@@H]1NC(=O)[C@H](CC(C)C)N(C)C(=O)C[C@@H](C(=O)N2CCCCC2)N(C)C(=O)[C@H](C2CCCCC2)N(C)C(=O)C2(CCCC2)NC(=O)CN(CCOCC(F)F)C(=O)[C@H](CCc2ccc(C(F)(F)F)c(Cl)c2)NC(=O)CN(C)C(=O)[C@H](CC2CCCCC2)N(C)C(=O)CN(C)C(=O)CN(C)C1=O [Compound 2036] ([NMeL]I[Sar][Sar][NMeCha][Sar][hPhe(3-Cl-4-CF3)][X81][Ac5c][NMeChg][NMeD]-Piperidide; lactam N-11 (inferred); C-terminus assumed),1.1 nM
10,"CC[C@H](C)[C@@H]1NC(=O)[C@H](CC(C)C)N(C)C(=O)C[C@@H](C)N(C)C(=O)[C@H](C2CCCC2)N(C)C(=O)C2(CCCC2)NC(=O)[C@@H]2CCCN2C(=O)[C@H](CCc2ccc(C(F)(F)F)c(F)c2)NC(=O)CN(C)C(=O)[C@H](CC2CCCCC2)N(C)C(=O)[C@@H]2CCN2C(=O)[C@H](C)N(C)C1=O [Compound 49] (cyclo([Ac5c][NMeGly(cPent)][NMedβ3hAla][NMeL]I[NMeA][Aze][NMeCha][Sar][hPhe(3-F,4-CF3)]P))",12 nM
11,CC[C@H](C)[C@@H]1NC(=O)[C@H](C)N(C)C(=O)C[C@@H](C)NC(=O)[C@H](CC(C)C)N(C)C(=O)[C@H](Cc2ccccc2)N(C)C(=O)[C@H](CC(C)C)N(C)C(=O)[C@H](CCc2ccc(C(F)(F)F)cc2)NC(=O)CN(C)C(=O)[C@H](Cc2ccc(Cl)cc2)N(C)C(=O)CN(C)C(=O)CN(C)C1=O [Compound 546] (cyclo(I[Sar][Sar][NMePhe(4-Cl)][Sar][hPhe(4-CF3)][NMeL][NMeF][NMeL][d(β3hA)][NMeA])),130 nM
12,CC[C@H](C)[C@@H]1NC(=O)[C@H](CC(C)C)N(C)C(=O)C[C@@H](C(=O)N2CCCCC2)N(C)C(=O)[C@H](C2CCCCC2)N(C)C(=O)C2(CCCC2)NC(=O)[C@@H]2C[C@H](c3ccccc3)CN2C(=O)[C@H](CCc2ccc(C(F)(F)F)c(Cl)c2)NC(=O)CN(C)C(=O)[C@H](CC2CCCCC2)N(C)C(=O)[C@@H]2CCN2C(=O)CN(C)C1=O [Compound 960] ([NMeL]I[Sar][Aze][NMeCha][Sar][hPhe(3-Cl-4-CF3)][Pro(cis-4-Ph)][Ac5c][NMeChg][NMeD]-Piperidide; lactam N-11),7.9 nM
13,CC[C@H](C)[C@@H]1NC(=O)[C@H](CC(C)C)N(C)C(=O)C[C@@H](C(=O)N2CCCCC2)N(C)C(=O)[C@H](C2CCCCC2)N(C)C(=O)C2(CCCC2)NC(=O)CN(CCOCC(F)(F)F)C(=O)[C@H](CCc2ccc(C(F)(F)F)c(Cl)c2)NC(=O)CN(C)C(=O)[C@H](CC2CCCCC2)N(C)C(=O)CN(C)C(=O)CN(C)C1=O [Compound 2024] ([NMeL]I[Sar][Sar][NMeCha][Sar][hPhe(3-Cl-4-CF3)][X132][Ac5c][NMeChg][NMeD]-Piperidide; lactam N-11 (inferred); C-terminus assumed),4.3 nM
14,CC[C@H](C)[C@@H]1NC(=O)[C@H](CC(C)C)N(C)C(=O)C[C@@H](C(=O)N2CCCCC2)N(C)C(=O)[C@H](C2CCCCC2)N(C)C(=O)C2(CCCC2)NC(=O)[C@@H]2C[C@@H](OCc3ccsc3)CN2C(=O)[C@H](CCc2ccc(C(F)(F)F)c(Cl)c2)NC(=O)CN(C)C(=O)[C@H](CC2CCCCC2)N(C)C(=O)CN(C)C(=O)CN(C)C1=O [Compound 2124] ([NMeL]I[Sar][Sar][NMeCha][Sar][hPhe(3-Cl-4-CF3)][Hyp](X14)[Ac5c][NMeChg][NMeD]-Piperidide; lactam N-11),0.91 nM
15,"CCCOC[C@H]1C(=O)N(C)CC(=O)N[C@@H](CCc2ccc(C(F)(F)F)c(F)c2)C(=O)N2CCC[C@H]2C(=O)NC2(CCCC2)C(=O)N(C)[C@@H](C2CCCC2)C(=O)N(C)[C@H](C(=O)N2CCCCC2)CC(=O)N(C)[C@@H](CC(C)C)C(=O)N[C@@H]([C@@H](C)CC)C(=O)N(C)[C@@H](C)C(=O)N2CC[C@H]2C(=O)N1C [Compound 1029] ([NMeL]I[NMeA][Aze][NMeS](Propyl)[Sar][hPhe(3-F,4-CF3)]P[Ac5c][NMeGly(cPent)][NMeD]-Piperidide; lactam N-11)",1.4 nM
16,CC[C@H](C)[C@@H]1NC(=O)[C@H](CC(C)C)N(C)C(=O)C[C@@H](C)N(C)C(=O)[C@H](CC(C)C)NC(=O)C(C)(C)N(C)C(=O)[C@H](CC(C)C)NC(=O)[C@H](CCc2ccc(C(F)(F)F)c(Cl)c2)NC(=O)[C@@H](C)N(C)C(=O)[C@H](CC2CCCCC2)N(C)C(=O)CN(C)C(=O)CN(C)C1=O [Compound 1389] (cyclo(I[Sar][Sar][NMeCha][dNMeA][hPhe(3-Cl-4-CF3)]L[NMeAib]L[NMedβ3hAla][NMeL])),240 nM
17,CC[C@H](C)[C@@H]1NC(=O)[C@H](C(C)C)N(C)C(=O)C[C@@H](C)NC(=O)[C@H](CC(C)C)N(C)C(=O)C(C)(C)NC(=O)[C@H](CC(C)C)N(C)C(=O)[C@H](CCc2ccc(C(F)(F)F)c(Cl)c2)NC(=O)CN(C)C(=O)[C@H](Cc2ccc(Cl)cc2)N(C)C(=O)CN(C)C(=O)CN(C)C1=O [Compound 740] (cyclo([Aib][NMeL][d(β3hA)][NMeV]I[Sar][Sar][NMePhe(4-Cl)][Sar][hPhe(3-Cl-4-CF3)][NMeL])),11 nM
18,CCO[C@@H]1C[C@H]2C(=O)N(C)[C@@H](Cc3ccccc3)C(=O)N(C)[C@@H](CC(C)C)C(=O)N[C@H](C)CC(=O)N(C)[C@@H](C)C(=O)N[C@@H]([C@@H](C)CC)C(=O)N(C)CC(=O)N(C)CC(=O)N(C)[C@@H](Cc3ccc(Cl)cc3)C(=O)N(C)CC(=O)N[C@@H](CCc3ccc(C(F)(F)F)cc3)C(=O)N2C1 [Compound 322] (cyclo([Hyp](Et)[NMeF][NMeL][d(β3hA)][NMeA]I[Sar][Sar][NMePhe(4-Cl)][Sar][hPhe(4-CF3)])),31 nM
